# Measured values taken from patent publication US20230083730A1, “Composition with Anti-Aging Properties and the Selection Method thereof” (Hemix Biotech Limited, priority 2021, published 2023).
# Columns and labels:
# Caenorhabditis elegans [1] = test: Caenorhabditis elegans lifespan analysis; format: in vivo; conditions: 200 μM spermidine alone, 10 μM resveratrol alone, or both combined; FIG. 1a
# Description: According to an embodiment of the present invention, i.e., a method for selecting a composition having anti-aging properties, step 1 of the method is to confirm the life-span enhancing effect of the composition by using Caenorhabditis elegans lifespan analysis. For chemical treatment in Caenorhabditis elegans, four batches of chemical with different ingredients and content were added to the nematode growth medium (NGM) dishes. The NGM with agarose was autoclaved and then cooled down to below 65° C. The NGM was then poured into 60 mm dishes and incubated at room temperature overnight. The solidified NGM dishes were stored at 4° C. Escherichia coli OP50 strain was used as the food source for C. elegans. A single colony of OP50 was incubated in 200 mL of lysogeny broth (LB) medium at 37° C. overnight. The OP50 was then killed by incubation at 65° C. for 30 minutes. The dead OP50 was spread throughout the surface of the NGM dishes. The NGM dishes with dead OP50 were stored at 4° C. for up to 2 weeks. The synchronization of C. elegans was carried out by the bleaching method. 20 L4 larvae were picked to each 60 mm dish with different chemical treatment and cultured at 20° C. They were monitored every day, and the number of living, dead and missing C. elegans were recorded. […]
# [2] = test system: human bone marrow mesenchymal stem cells (MSCs); test: human bone marrow mesenchymal stem cell viability assay (MTS); format: cell-based; conditions: 2 days treatment; FIG. 4
# Description: Firstly, cells were cultured in 96-well plate and CellTiter 96® AQueous One Solution Cell Proliferation Assay (MTS) was used to carry out the cell viability assay. For human mesenchymal stem cells (MSCs), they were seeded and cultured in 96-well plate and treated with control, resveratrol, spermidine or combined treatment for 2 days. Human bone marrow mesenchymal stem cells (MSCs) were treated with four batches of chemical having different ingredients and concentrations of spermidine and resveratrol for two days under identical experimental conditions. The ingredients and concentrations of spermidine and resveratrol of the four different chemicals are: control blank, spermidine alone, resveratrol alone, and a combined use of spermidine and resveratrol.
# Caenorhabditis elegans [3] = conditions: prior art literature; cited from earlier work
Compound,life span of Caenorhabditis elegans (Caenorhabditis elegans [1]),cell viability of human bone marrow MSCs [2],effective concentration to extend the lifespan of Caenorhabditis elegans (Caenorhabditis elegans [3])
"Oc1ccc(C=Cc2cc(O)cc(O)c2)cc1 [resveratrol, 3,5,4′-trihydroxystilbene]",higher than that of the control blank,can enhance cell viability,100 µM
NCCCCNCCCN [spermidine],higher than that of the control blank,can enhance cell viability,200 µM
